These results are taken from US12527873B2, “Glycocalyx mimetic coatings” (The Regents of The University of California, priority 2019, dated 2026).

Assay [1] concerns the target T1, E-selectin (Homo sapiens, UniProt P16581).
T1 sequence (P16581 22-610): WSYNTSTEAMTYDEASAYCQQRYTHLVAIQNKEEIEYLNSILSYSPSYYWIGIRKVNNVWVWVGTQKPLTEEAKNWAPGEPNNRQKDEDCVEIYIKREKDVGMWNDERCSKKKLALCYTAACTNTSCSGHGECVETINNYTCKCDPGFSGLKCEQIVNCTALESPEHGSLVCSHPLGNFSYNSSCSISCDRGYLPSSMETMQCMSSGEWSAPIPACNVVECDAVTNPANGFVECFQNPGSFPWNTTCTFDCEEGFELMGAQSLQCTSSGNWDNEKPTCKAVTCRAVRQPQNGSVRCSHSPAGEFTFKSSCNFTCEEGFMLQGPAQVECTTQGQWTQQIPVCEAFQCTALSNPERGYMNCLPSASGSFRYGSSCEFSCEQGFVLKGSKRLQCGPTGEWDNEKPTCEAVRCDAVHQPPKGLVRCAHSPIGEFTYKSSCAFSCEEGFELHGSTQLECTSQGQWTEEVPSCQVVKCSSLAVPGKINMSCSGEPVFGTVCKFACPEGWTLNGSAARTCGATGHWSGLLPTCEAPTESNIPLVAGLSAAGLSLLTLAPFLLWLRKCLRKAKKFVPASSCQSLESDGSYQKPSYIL
The assay can be described thus: PMN binding to E-selectin coated microspheres (flow cytometry). Conditions: IkL peptide 450 μM, DS-IkL15 30 μM; p<0.05; FIG. 9. On the set-up: purchased R&D Systems. The format is cell-based. On the procedure:
To validate the new molecule, fluorescent carboxylate microspheres were coated with recombinant human E-selectin (R&D Systems, Minneapolis, MN) using a PolyLink coupling kit (PolySciences Inc., Warrington, PA). Functionalized microspheres were treated with HBSS^+/+, EC-SEAL (30 μM), DS-IkL10 (30 μM), DS-IkL15 (30 μM), or GMI-1070 ([…]) for one hour. During this time, human neutrophils were isolated from whole blood using an established protocol. Briefly, 6 mL of whole blood were collected into an EDTA coated tube in accordance with the UC Davis Internal Review Board under IRB assurance No. 00004557. Neutrophils were isolated using an EasyStep Direct Human Neutrophil Isolation Kit (Stem Cell Technologies, Vancouver, BC, Canada), centrifuged, and resuspended in HBSS^+/+, with 0.1% human serum albumin (HSA) at 1×10^6 cells/mL. Cells were labeled with fluorescently tagged anti-CD15 for detection. Microspheres were pelleted and resuspended in 100 uL labeled neutrophils, then incubated for 30 minutes at room temperature with rotation (150 rpm). Samples were fixed in 4% PFA and read on an Attune NxT Flow Cytometer. Data was analyzed using FlowJo flow cytometry software (San Diego, Calif.) to determine the top three performing variants. This was repeated 2-6 times for an n of 3-7. […]
Background: Flow cytometry measures light scatter and fluorescence of single cells or particles in a stream.

Assay [2] relates to stimulated human cardiac microvascular endothelial cells (HCMECs). As to the kind of experiment: Platelet activation on stimulated HCMECs (NAP-2, PF-4 in supernatant). The format is cell-based. Conditions: DS-IkL 30 μM, IkL peptide 450 μM, DS 30 μM, platelets 1 hour on TNF-α/IL-1β stimulated HCMECs. The source says:
Enhanced platelet activation and binding have been implicated in a multitude of chronic inflammatory diseases, including acute coronary and pulmonary syndromes (Lisman, T, Cell Tissue Res. 2018; 371(3):567-576). Activated platelets release cytokines such as platelet factor 4 (PF-4) and neutrophil activating peptide 2 (NAP-2) that can in turn activate neutrophils (Pitchford, S., D. Pan, and H. C. Welch. Curr. Opin. Hematol. 2017; 24(1):23-31). To test if treatment of inflamed endothelial cells with DS-IkL could reduce the activation of platelets as assessed by PF-4 and NAP-2 levels, platelets were allowed to interact with stimulated human cardiac microvascular endothelial cells (HCMECs, PromoCell) under standard culture conditions for 1 hour before supernatant was collected. Stimulation media was prepared by diluting to 0.4 ng/ml tumor necrosis factor alpha (TNF-α) and 0.3 ng/ml interleukin 1 beta (IL-1β) in complete endothelial growth medium MV (PromoCell).

In another assay the target is T2, P-selectin (Homo sapiens, UniProt P16109).
T2 sequence (P16109 42-830): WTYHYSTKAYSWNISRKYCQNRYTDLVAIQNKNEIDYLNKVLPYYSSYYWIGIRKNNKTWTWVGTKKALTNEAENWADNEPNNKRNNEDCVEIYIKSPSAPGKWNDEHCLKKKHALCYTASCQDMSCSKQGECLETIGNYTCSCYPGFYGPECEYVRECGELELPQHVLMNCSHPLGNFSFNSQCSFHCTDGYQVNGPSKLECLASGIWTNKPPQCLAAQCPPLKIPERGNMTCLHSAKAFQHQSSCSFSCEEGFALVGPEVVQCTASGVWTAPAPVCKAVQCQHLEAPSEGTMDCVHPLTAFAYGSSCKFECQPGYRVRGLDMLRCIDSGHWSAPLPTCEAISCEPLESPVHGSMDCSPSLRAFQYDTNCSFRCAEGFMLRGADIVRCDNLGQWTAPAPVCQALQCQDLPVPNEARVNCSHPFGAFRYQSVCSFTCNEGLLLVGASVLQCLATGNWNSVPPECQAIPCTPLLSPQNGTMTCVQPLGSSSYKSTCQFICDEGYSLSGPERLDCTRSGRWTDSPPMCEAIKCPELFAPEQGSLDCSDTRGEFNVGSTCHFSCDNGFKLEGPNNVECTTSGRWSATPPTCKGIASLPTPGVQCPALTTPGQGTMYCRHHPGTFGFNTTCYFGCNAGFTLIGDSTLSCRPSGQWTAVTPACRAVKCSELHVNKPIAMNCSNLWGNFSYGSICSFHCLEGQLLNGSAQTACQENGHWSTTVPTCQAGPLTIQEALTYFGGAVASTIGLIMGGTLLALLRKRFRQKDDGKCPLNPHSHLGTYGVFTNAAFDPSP
As to the kind of experiment: Binding to P-selectin coated surfaces (fluorescently tagged molecule, MFI). The note with it: increasing concentrations; MFI normalized to vehicle (HBSS); FIG. 6.

Assay [3] addresses T1, E-selectin. As to the kind of experiment: Binding to E-selectin coated surfaces (fluorescently tagged molecule, MFI). The note with it: increasing concentrations; MFI normalized to vehicle (HBSS); FIG. 6.
Experimental: (§1) P- and E-selectin coated surfaces were treated with fluorescently tagged DS-IkL (30 μM, empty bars) or DS (30 μM, filled bars). […] Data are represented as means±SEM. *p<0.05, **p<0.01, ***p<0.001. n=3 independent experiments.

Experimental for P-selectin: as §1

Consider “Ile-(D)lys-Leu-Leu-(D)pro-Hyp-Arg [IkL peptide]”, for which the “neutrophil adhesion to microspheres” value at E-selectin [1] is on record as “approximately 75 % of control”. In addition, in assay [2] (FIG. 7), the “platelet activation as assessed by NAP-2” value is recorded as “reduced”. The “platelet activation as assessed by PF-4” value in assay [2] (FIG. 8) is recorded as “reduced”.
Take dermatan sulfate [DS]: on P-selectin, the “binding to P-selectin coated surfaces” value is “not observed in the DS group”. Also, the “binding to E-selectin coated surfaces” value on E-selectin [3] is on record as “not observed in the DS group”.
